# Tested on: Cylas formicarius
# Assay: Insecticidal activity in adult Cylas formicarius elegantulus measured per insect after 24 hrs
# Format: functional
row,SMILES,LD50
1,C[C@@H]1CC(c2ccoc2)=C[C@]2(C1)C[C@H](C)C(=O)O2 [CAPRARIOLIDE A],0.902 mg
2,C[C@@H]1CC(c2ccoc2)=C[C@]2(C1)C[C@@H](C)C(=O)O2 [CAPRARIOLIDE B],1.102 mg
3,C=CCc1ccc(O)c(OC)c1 [EUGENOL],0.605 mg

# Source: ChEMBL document CHEMBL1155623, “New skeletal sesquiterpenoids, caprariolides A-D, from Capraria biflora and their insecticidal activity” (2000)
